Test results as given in US9144556B2, “Composition for promoting lipolysis” (LION CORPORATION, priority 2011, dated 2015).

Tested on: rat mesenteric adipocytes
Assay: Rate of promoting lipolysis (glycerol quantification in culture supernatant of rat mesenteric adipocytes)
Type: cell-based
Settings: for Rate of promoting lipolysis of the combination compared with the value obtained by adding the rates of the single preparations (synergy): combined preparation versus sum of single preparations at corresponding concentration; for Rate of promoting lipolysis (combined preparation (+ lactoferrin 10 ppm)) / Rate of promoting lipolysis (combined preparation (+ lactoferrin 30 ppm)) / Rate of promoting lipolysis (single preparation): 48 hours, additive free group = 0%; for Rate of promoting lipolysis (single preparation): relative glycerol amount
Method: Promoting the breakdown of the fat by the composition for promoting the lipolysis of the present invention can be confirmed, for example, by conducting Examples. That is, a sample is added to a precursor adipocyte prepared from rat mesenteric tissue, and glycerol is quantified. A commercially available kit such as F-Kit Glycerol (supplied from Roche, product number: 14820) may be used for the quantification. When the amount of obtained glycerol is larger than the amount of glycerol when the sample was not added, it can be confirmed that the lipolysis was promoted.
Two SD rats (male, 10 weeks of age, Japan SLC, Inc.) were used. The rats were euthanized under anesthesia with ether and anatomized, and mesenteric adipose tissue was removed. The obtained tissue was placed in a sterilized petri dish, immersed in ice-cold saline (Otsuka Normal Saline, supplied from Otsuka Pharmaceutical Co., Ltd.) containing 1% antibiotic (Antibiotic-Antimycotic Stabilized, supplied from Sigma, A5955), and washed to remove blood and hairs, particularly lymphocytes (washed several times with different saline until no hair was visible). The tissue was cut using ophthalmic scissors (cut 25 times per 1 g of the tissue), and dispersed by stirring every several minutes in a PBS solution containing 1 mg/mL of collagenase (Collagenase S-1 derived from Actinomycetes, supplied from Nitta Gelatin Inc.) at 37° C. for 40 minutes. Roughly, the tissue from one rat was treated with 20 mL of the collagenase solution.
The tissue suspension was filtrated through a cell strainer with a pore size of 100 μm (REF352360 supplied from BD Falcon). Subsequently, a viscosity of the suspension was reduced by adding 20 mL of DMEM (Dulbecco's Modified Eagle's Medium-high glucose, D5796 supplied from Sigma), and then the suspension was centrifuged at 800 rpm for 10 minutes. An oil layer in an upper layer was removed using an aspirator, and then, the resulting suspension was resuspended and filtrated through a cell strainer with a pore size of 70 μm (REF352350 supplied from BD Falcon). After centrifuging at 800 rpm for 15 minutes, it was confirmed that there was no suspended cell in a supernatant, the presence of a pellet was confirmed, and then the supernatant was removed. The pellet was suspended in 5 mL of DMEM (serum free), the suspension was centrifuged at 800 rpm for 15 minutes, and then the supernatant was removed.
The resulting pellet was gently suspended in 5 mL of a medium for visceral adipocyte differentiation (Visceral Adipocyte Culture Medium, 250 mL, code: VACMR supplied from Primary Cell Co., Ltd.). The suspension was diluted to 10 times, and the number of cells was counted and was 1.015×10^7 cells/mL. 2.54×10^7 cells could be recovered from one rat. The cells suspended in the medium were placed so as to be at 6×10^6 cells/24-wells and 500 μL/well, and their cultivation was started. On the following day, 500 μL of the medium was added, and subsequently the medium was changed every third day. […]. On the 6th day after the start of the cultivation, the medium was changed to a medium containing each sample. A culture supernatant was collected 48 hours after adding the sample, and the cultivation was terminated. It was visually confirmed that there was no cytotoxicity in all of the cultivations.
A concentration of lactoferrin was adjusted to 30 ppm or 10 ppm, and lactoferrin at each concentration was used as the sample for evaluating the effect of lactoferrin alone (Comparative Experimental example 1). Each ingredient other than lactoferrin was used as the sample for evaluating the effect of a single preparation alone as follows. Lactoferrin and each ingredient other than lactoferrin were adjusted to the following concentrations and mixed to use as the sample for evaluating the effect of a combined preparation (Experimental Examples 1 to 9 and Comparative Experimental Examples 2 to 4). […]

[1] = ingredient 10 ppm + lactoferrin 10 ppm
[2] = ingredient 10 ppm + lactoferrin 30 ppm
[3] = ingredient 30 ppm + lactoferrin 10 ppm
[4] = ingredient 30 ppm + lactoferrin 30 ppm

Compound: O=C(/C=C/c1ccc(O)c(O)c1)O[C@@H]1C[C@](O)(C(=O)O)C[C@@H](O)[C@H]1O [Chlorogenic acid, chlorogenic acid]
- Rate of promoting lipolysis of the combination compared with the value obtained by adding the rates of the single preparations (synergy): No prominently synergistic effect
- Rate of promoting lipolysis (combined preparation (+ lactoferrin 10 ppm)) [1]: 12%
- Rate of promoting lipolysis (combined preparation (+ lactoferrin 30 ppm)) [2]: 20%
- Rate of promoting lipolysis (single preparation) (ingredient 10 ppm alone): 3%
- Rate of promoting lipolysis (combined preparation (+ lactoferrin 10 ppm)) [3]: 14%
- Rate of promoting lipolysis (combined preparation (+ lactoferrin 30 ppm)) [4]: 22%
- Rate of promoting lipolysis (single preparation) (ingredient 30 ppm alone): 5%

Compound: O=C(O[C@@H]1Cc2c(O)cc(O)cc2O[C@@H]1c1cc(O)c(O)c(O)c1)c1cc(O)c(O)c(O)c1 [Epigallocatechin gallate, epigallocatechin gallate]
- Rate of promoting lipolysis of the combination compared with the value obtained by adding the rates of the single preparations (synergy): No prominently synergistic effect
- Rate of promoting lipolysis (combined preparation (+ lactoferrin 10 ppm)) [1]: 11%
- Rate of promoting lipolysis (combined preparation (+ lactoferrin 30 ppm)) [2]: 21%
- Rate of promoting lipolysis (single preparation) (ingredient 10 ppm alone): −6%
- Rate of promoting lipolysis (combined preparation (+ lactoferrin 10 ppm)) [3]: 13%
- Rate of promoting lipolysis (combined preparation (+ lactoferrin 30 ppm)) [4]: 24%
- Rate of promoting lipolysis (single preparation) (ingredient 30 ppm alone): 3%

Compound: CC(=O)CCc1ccc(O)cc1 [Raspberry ketone, 4-(4-hydroxyphenyl)-2-butanone]
- Rate of promoting lipolysis (combined preparation (+ lactoferrin 10 ppm)) [1]: 22%
- Rate of promoting lipolysis (combined preparation (+ lactoferrin 10 ppm)) (ingredient 10 ppm + lactoferrin 10 ppm, listed as raspberry ketone): more excellent effect of promoting the lipolysis than in the case of lactoferrin 10 ppm alone
- Rate of promoting lipolysis (combined preparation (+ lactoferrin 30 ppm)) [2]: 57%
- Rate of promoting lipolysis (single preparation) (ingredient 10 ppm alone): −2%
- Rate of promoting lipolysis (single preparation) (ingredient 10 ppm alone, listed as raspberry ketone): rather inhibited the lipolysis
- Rate of promoting lipolysis (combined preparation (+ lactoferrin 10 ppm)) [3]: 34%
- Rate of promoting lipolysis (combined preparation (+ lactoferrin 30 ppm)) [4]: 70%
- Rate of promoting lipolysis (single preparation) (ingredient 30 ppm alone): 10%

Compound: Lactoferrin
- Rate of promoting lipolysis (single preparation) (ingredient 10 ppm alone): 12.1%
- Rate of promoting lipolysis (single preparation) (ingredient 30 ppm alone): 21.3%
